According to PubChem BioAssay AID304 (DTP/NCI, 2004):
Several values for one entry are separate records, joined by “and”; a condition that tells them apart may be missing. Identical values can stand only once. Inconclusive results and toxic doses are left out.

Test system: Lymphosarcoma Mecca ip in C3AKF1 mice, survival T/C%
Experiment: NCI In Vivo Anticancer Drug Screen. Data for tumor model Lymphosarcoma Mecca (intraperitoneal) in C3AKF1 (CHKRF1) mice
Settings: endpoint: survival time, mean or median, higher = longer survival
Description: The antitumor activity of compounds was measured in mice bearing transplantable tumors. Survival or tumor size were measured and the results are expressed as the measurement made in the treated group (T) divided by the measurement made in the vehicle treated control group (C). The tumor model used in this assay is Lymphosarcoma Mecca (intraperitoneal) in C3AKF1 (CHKRF1) mice

[1] = dose: 2.5 mg/kg/injection, schedule: Q01DX010 (ip), vehicle: saline
[2] = dose: 5.0 mg/kg/injection, schedule: Q01DX010 (ip), vehicle: saline
[3] = dose: 10.0 mg/kg/injection, schedule: Q01DX010 (ip), vehicle: saline
[4] = dose: 25.0 mg/kg/injection, schedule: Q01DX010 (ip), vehicle: saline
[5] = dose: 50.0 mg/kg/injection, schedule: Q01DX010 (ip), vehicle: saline
[6] = dose: 100.0 mg/kg/injection, schedule: Q01DX010 (ip), vehicle: saline
[7] = dose: 200.0 mg/kg/injection, schedule: Q01DX010 (ip), vehicle: saline
[8] = dose: 400.0 mg/kg/injection, schedule: Q01DX010 (ip), vehicle: saline
[9] = dose: 12.5 mg/kg/injection, schedule: Q01DX010 (sc), vehicle: steriod suspending solution
[10] = dose: 25.0 mg/kg/injection, schedule: Q01DX010 (sc), vehicle: steriod suspending solution
[11] = dose: 50.0 mg/kg/injection, schedule: Q01DX010 (sc), vehicle: steriod suspending solution
[12] = dose: 100.0 mg/kg/injection, schedule: Q01DX010 (sc), vehicle: steriod suspending solution
[13] = dose: 20.0 mg/kg/injection, schedule: Q01DX010 (ip), vehicle: saline
[14] = dose: 40.0 mg/kg/injection, schedule: Q01DX010 (ip), vehicle: saline

## Oc1cc(CN(CCCl)CCCl)c(O)cc1CN(CCCl)CCCl
dose: 0.63 mg/kg/injection, schedule: Q01DX010 (ip), vehicle: saline
  T/C: 120 % of control

## c1ccc(CNc2ncnc3[nH]ncc23)cc1
dose: 8.0 mg/kg/injection, schedule: Q01DX010 (ip), vehicle: saline
  T/C: 151 % of control
dose: 16.0 mg/kg/injection, schedule: Q01DX010 (ip), vehicle: saline
  T/C: 100 % of control and 118 % of control
dose: 32.0 mg/kg/injection, schedule: Q01DX010 (ip), vehicle: saline
  T/C: 90 % of control

## CCOC(=O)NP(=O)(N1CC1)N1CC1
[1]
  T/C: 111 % of control and 116 % of control
[2]
  T/C: 116 % of control and 122 % of control
[3]
  T/C: 122 % of control

## COCCCNP(=S)(N1CC1)N1CC1
dose: 0.5 mg/kg/injection, schedule: Q01DX010 (ip), vehicle: saline
  T/C: 100 % of control
dose: 1.0 mg/kg/injection, schedule: Q01DX010 (ip), vehicle: saline
  T/C: 100 % of control
dose: 2.0 mg/kg/injection, schedule: Q01DX010 (ip), vehicle: saline
  T/C: 100 % of control
dose: 4.0 mg/kg/injection, schedule: Q01DX010 (ip), vehicle: saline
  T/C: 105 % of control

## OC(CBr)C(O)C(O)C(O)CBr (centres undefined)
[4]
  T/C: 100 % of control
[5]
  T/C: 100 % of control
[6]
  T/C: 100 % of control and 110 % of control
[7]
  T/C: 89 % of control
[8]
  T/C: 115 % of control

## C[C@]12C=CC(=O)C=C1CC[C@@H]1[C@@H]2[C@@H](O)C[C@@]2(C)[C@H]1CC[C@]2(O)C(=O)CO
[9]
  T/C: 86 % of control
[10]
  T/C: 100 % of control
[11]
  T/C: 160 % of control
[12]
  T/C: 115 % of control

## O=c1[nH]cc(F)c(=O)[nH]1
[1]
  T/C: 100 % of control
[2]
  T/C: 110 % of control
[13]
  T/C: 155 % of control

## CC(=O)O[C@]1(C(C)=O)CC[C@H]2[C@@H]3C[C@H](C)C4=CC(=O)C=C[C@]4(C)[C@@]3(F)[C@@H](O)C[C@@]21C
[9]
  T/C: 105 % of control
[10]
  T/C: 100 % of control
[11]
  T/C: 100 % of control
[12]
  T/C: 90 % of control

## COc1cc(-c2ccc(Nc3ccccc3C(=O)O)c(OC)c2)ccc1Nc1ccccc1C(=O)O
dose: 12.5 mg/kg/injection, schedule: Q01DX010 (ip), vehicle: saline
  T/C: 111 % of control
[4]
  T/C: 120 % of control and 122 % of control
[7]
  T/C: 105 % of control

## COc1cc(-c2ccc(Nc3ccccc3C(=O)O)c(OC)c2)ccc1N
[3]
  T/C: 105 % of control and 110 % of control
[13]
  T/C: 111 % of control and 115 % of control
[14]
  T/C: 122 % of control
dose: 80.0 mg/kg/injection, schedule: Q01DX010 (ip), vehicle: saline
  T/C: 111 % of control

## CS(=O)(=O)OCC(O)C(O)C(O)C(O)COS(C)(=O)=O (centres undefined)
[4]
  T/C: 111 % of control
[5]
  T/C: 100 % of control and 111 % of control
[6]
  T/C: 100 % of control and 116 % of control
[7]
  T/C: 100 % of control and 122 % of control
[8]
  T/C: 110 % of control

## Clc1ncnc2nc[nH]c12
dose: 7.5 mg/kg/injection, schedule: Q01DX010 (ip), vehicle: saline
  T/C: 90 % of control
dose: 15.0 mg/kg/injection, schedule: Q01DX010 (ip), vehicle: saline
  T/C: 95 % of control and 100 % of control
dose: 30.0 mg/kg/injection, schedule: Q01DX010 (ip), vehicle: saline
  T/C: 86 % of control and 95 % of control
dose: 60.0 mg/kg/injection, schedule: Q01DX010 (ip), vehicle: saline
  T/C: 86 % of control

## Nc1nc(=O)n(C2CC(O)C(CO)O2)cc1Br (centres undefined)
[5]
  T/C: 100 % of control
[6]
  T/C: 100 % of control and 105 % of control
[7]
  T/C: 100 % of control and 111 % of control
[8]
  T/C: 90 % of control and 94 % of control
dose: 800.0 mg/kg/injection, schedule: Q01DX010 (ip), vehicle: saline
  T/C: 88 % of control

## CC1CN1P(=S)(N1CC1C)N1CC1C (centres undefined)
dose: 1.25 mg/kg/injection, schedule: Q01DX010 (ip), vehicle: saline
  T/C: 100 % of control
[1]
  T/C: 100 % of control and 105 % of control
[2]
  T/C: 100 % of control
[3]
  T/C: 100 % of control and 105 % of control
[13]
  T/C: 100 % of control

## Nc1nc2n[nH]nc2c(=O)[nH]1
dose: 25.0 mg/kg/injection, schedule: Q01DX010 (ip), vehicle: alkali diluted with saline
  T/C: 115 % of control
dose: 50.0 mg/kg/injection, schedule: Q01DX010 (ip), vehicle: alkali diluted with saline
  T/C: 88 % of control and 110 % of control

## CN(C)c1ccc(/C=C/c2ccnc3ccccc23)cc1
[2]
  T/C: 100 % of control and 111 % of control
[3]
  T/C: 94 % of control
[13]
  T/C: 94 % of control and 100 % of control
[14]
  T/C: 94 % of control
